# Assay results reported in patent US9504745B2, “Compositions and methods for cancer treatment using targeted carbon nanotubes” (The Board of Regents of the University of Oklahoma, priority 2007, dated 2016).
# Where two headings read alike, the source gives them in different places.
# How the values were obtained:
# 4T1 mouse mammary tumors = assay: In vivo laser treatment of implanted 4T1 mammary tumors in mice with SWNT-annexin V complex; parameters: species or system BALB/cJ mice
# Experimental: In another embodiment, female BALB/cJ mice, age 6 weeks (received from Jackson Laboratory (Bar Harbor, Me.) were treated. Animal experimentation was not started until the animals were 9 weeks old. The animals were kept in a dedicated room in the animal facility located in the Zoology building of the University of Oklahoma. All of the protocols used involving animals were previously submitted and approved by the Institutional Animal Care and Use Committee (IACUC). All of the animals were placed in appropriate cages with food and water in an adequate environment. Each cage hosted five animals. The anesthetics used were ketamine (100 mg/ml) and xylazine (20 mg/ml). In order to prepare the anesthetic solution, 1 ml of ketamine (100 mg/ml) was mixed with 0.5 ml of xylazine (20 mg/ml) and 8.5 ml of sterile saline solution (0.9% NaCl). The dosage used for each animal was equal to 0.1 ml of the stock solution per 10 grams of body weight. Prior to anesthetizing the animals, each of them was weighted using a scale.
# In order to evaluate the ability to eradicate the tumors using this therapy in vivo, it was necessary to implant a suitable cancer cell line in the animals. The 4T1 cell line was chosen for this study, since these cells have the ability to replicate at a fast rate and also develop visible tumors in BALB/c mice in a matter of less than one week after implantation. […] After having the eight T-75 flasks growing for 2 days, there are plenty of cells to inject the animals, for each test. The cells are then lifted from the flasks using ACCUTASE® solution (Innovative Cell Technologies, San Diego, Calif.), using the same procedure as for human endothelial cells. […] Knowing that it is necessary to inject 5×10^5 cells/animal (volume=100 μl), the total number of cells was determined. The cell concentration in the sample was evaluated using the standard cell counting procedure. […]
# After irradiation, the tumor volumes were monitored every two days. […] The length and width of the tumors was measured using a digital caliper. The tumor volumes were determined by applying the following formula: […]
# [1] = tested on: human endothelial cells with phosphatidylserine exposed by H2O2; assay: Binding of SWNT-annexin V (biotinylated) to human endothelial cells in vitro (streptavidin-HRP/OPD, A450)
# Experimental: Purified recombinant annexin V was labeled with biotin for detection (SureLINK chromophoric biotin labeling kit; KPL, Gaithersburg, Md.) with a 40-molar excess of biotin. Biotin labeling of annexin V has been found previously not to impair the PS-binding of annexin V. The following procedure was used to measure the binding of the SWNT-annexin V (biotinylated) to human endothelial cells in vitro.
# Human endothelial cells (American Type Culture Collection, Manassas, Va.) were grown as monolayers in T-75 flasks. […] The cells were fixed by adding 100 μl of phosphate buffered saline (PBS) buffer containing 0.25% glutaraldehyde and Ca^2+ (2 mM). Excess aldehyde groups were quenched by incubating with 50 mM of NH4Cl (100 μl) diluted in PBS buffer containing Ca^2+ (2 mM) for 5 minutes. The SWNT-annexin V conjugate was diluted in 0.5% BSA diluted in PBS buffer and Ca^2+ (2 mM) with an initial concentration of […]. This concentrated fusion protein solution was serially diluted 2-fold until a final concentration of 6.7 μM. SWNT-CMC-annexin V (300 μl) was added to wells in the increasing concentration of SWNT-CMC-annexin V. For each concentration of SWNT-CMC-annexin V, the experiment was done in duplicate and incubated for 2 hours. Plates were washed with 0.5% BSA diluted in PBS buffer and Ca^2+ (2 mM) (300 μl). 300 μl of streptadivin-HRP (horseradish peroxidase) (2 μg/ml) was added and incubated for 1 hour at room temperature. The plate was then washed with PBS (300 μl), and the chromogenic substrate O-phenylenediamine (OPD, 300 μl) was added and incubated for 30 minutes. 100 μl of the supernatant was then transferred to 96-well plates, and absorbance was measured at 450 nm (Biotek KC4 microtiter plate reader) using a blank that omits the addition of SWNT-annexin V described above.
# The data obtained above for the binding of SWNT-CMC-annexin V to human endothelial cells in vitro was used in the determination of the dissociation constant (Kd). […]
# human endothelial cells [2] = tested on: human endothelial cells
# Experimental: The effects of irradiation of SWNTs bound to endothelial cells were tested in vitro. […] The following procedure was used to treat human endothelial cells in vitro with SWNT-CMC-annexin V bound.
# Cells were grown using F12K media containing 10% FBS until they reach 85% confluence in T-75 flasks, and the cells were then counted using a hemocytometer. Cancer cells (5×10^4) were transferred to 24 well plates (6 plates, with 3 wells per plate containing cells) and grown until 85% confluence was reached. Two extensive dialyses were performed (with a total dilution factor of 1,000,000×) in order to remove the sodium azide from the SWNT-CMC-biotinylated annexin V. The first dialysis for 3 hours (1000×) was performed using modification buffer (100 mM sodium phosphate, 150 mM NaCl, pH 7.2-7.4). The buffer was changed and the dialysis continued for 4 more hours. 1 ml of the suspension of SWNT-CMC-biotinylated annexin V was used. PS was exposed on the surface of cells by the addition of hydrogen peroxide (1 mM), and the cells were treated with 300 μl binding buffer containing the F12K media containing 1 mM of H2O2 for 1 hour at 37° C. The plates were washed 4× with F12K media (containing 10% FBS) (300 μl), and SWNT-CMC-biotinylated-annexin V (300 μl) was added to wells at a concentration of 20 nM. In order to obtain this concentration, the protein was diluted using F12K media (containing 10% FBS plus 2 mM Ca^2+). For each plate, the experiment was done in triplets. The plates were incubated for 2 hours in the incubator and then washed 4× with F12K media (containing 10% FBS plus 2 mM Ca^2+) (300 μl). […] Cell viability was evaluated one hour later by adding Alamar Blue in an amount equal to 10% of culture media (30 μl of Alamar Blue+300 μl of media) volume to the wells. […] Fluorescence was then measured at 590 nm (using excitation at 530 nm). […] The cells that were attached were treated with trypsin, and the cells were combined in the 96-well plates and counted in a hemocytometer. […]
# human endothelial cells [3] = assay: Laser irradiation of human endothelial cells with SWNT-Fmoc-NH-PEG-NHS-annexin V bound (Alamar Blue); assay type: cell-based; conditions: 20 nM protein
# Experimental: The procedure described above was applied using the human annexin V protein but any Annexin described herein could be used. […] The media was warmed up in the incubator at 37° C. and then removed from the wells. […] For each plate, the experiment was performed in triplets.
# The samples (300 μl/well) were then transferred to a 96-microtiter plate, and fluorescence was measured at 590 nm (using excitation at 530 nm).
# human endothelial cells [4] = assay: Laser treatment of human endothelial cells with SWNT-annexin V complex, SDS method (Alamar Blue); assay type: cell-based
# Experimental: SWNTs with annexin V conjugated using the Fmoc-NH-PEG-NHS linker added via the SDS method were used in a laser test with endothelial cells. […] The endothelial cells were transferred to 24 well plates (5×10^4 cells per well) and grown until 100% confluence was reached. A separate plate was used for each different treatment. The media was warmed up in the incubator at 37° C., and the media was removed from the wells. […] For each plate, the experiment was done with two or three wells.
# 300 μl of F12K media was added with 2 mM Ca^2+ to the wells, and the laser treatment was performed on each well using a beam with a diameter of 1.8 cm, power level of 3.9 W, and beam time of 130 s (energy density=199 J/cm^2).
# Then, SWNT-annexing V was added to the wells as described above.
# [5] = patients; cited from earlier work
# [6] = tested on: non-small-cell lung cancer (NSCLC) with pleural spread; conditions: 22 patients, photosensitizer 24 hours before surgery, 603 nm light; cited from earlier work
# [7] = human endothelial cells, FIG. 1
compound,measurement,setting,value
"O=P1(N(CCCl)CCCl)NCCCO1 (centres unmarked) [CY, cyclophosphamide]",effect of addition of CY on tumor volume reduction,4T1 mouse mammary tumors; CY 50 mg/kg i.p. added to SWNTs+Laser,did not translate into a significant difference
same,effect of CY on metastatic nodules compared to laser+SWNT treatment alone,4T1 mouse mammary tumors; lungs,did not lead to fewer metastatic nodules
same,effect of addition of CY on survival,4T1 mouse mammary tumors; treatment group that received CY compared to the one that did not,increased survival
SWNT-CMC-annexin V: Recombinant annexin V (biotinylated) conjugated via EDC/NHS to carboxymethylcellulose (30 kDa) adsorbed to single-walled carbon nanotubes,Kd,"[1]; binding to human endothelial cells in vitro, PS exposed with 1 mM H2O2, fit with Prism 5, read-out: dissociation constant (Kd)",2.9 nM
same,binding to the cells,[1]; [7],binding to the cells increased as the annexin V-SWNT complex concentration increased
same,concentration above which transition from negligible binding to measurable binding occurred,[1]; [7],> 1000 pM
same,difference in RFU between cells with nanotubes and cells without nanotubes,human endothelial cells [2],no significant difference
same,cell number at 4 W/cm^2 relative to 0 W/cm^2,"human endothelial cells [2]; 20 nM complex bound, 980 nm, 20 J/cm^2, hemocytometer",50%
same,difference in RFU between cells with nanotubes and cells without nanotubes,"human endothelial cells [2]; power level of 2 W/cm^2, 980 nm, 20 J/cm^2",no significant difference
SWNT-Fmoc-NH-PEG-NHS-annexin V: Human annexin V attached via Fmoc-NH-PEG-NHS linker adsorbed to SWNTs dispersed with sodium cholate,effect on the cells (Alamar Blue),"human endothelial cells [3]; with laser 980 nm 1.50 W/cm^2 for 130 seconds (195 J/cm^2), H2O2, 85% confluence",killing virtually all of the cells
same,effect on the cells (Alamar Blue),human endothelial cells [3]; without laser,no effect on the cells
SWNT-annexin V: SWNTs with annexin V conjugated using the Fmoc-NH-PEG-NHS linker added via the SDS method,cell viability,"human endothelial cells [4]; 0.89 mg/L SWNT, 299 J/cm^2, hydrogen peroxide, versus 199 J/cm^2",again lower
same,reduction of cell viability compared with untreated cells,"human endothelial cells [4]; 0.89 mg/L SWNTs, laser energy 199 J/cm^2, hydrogen peroxide, 100% confluent cells",60%
same,effect on cell viability,"human endothelial cells [4]; laser at 199 J/cm^2, 0.06-0.89 mg/L SWNT, no H2O2, significant (p<0.05) at 0.89 mg/L",concentration-dependent effect on cell viability
same,effect on the cells (Alamar Blue),"human endothelial cells [4]; without laser (plate 2, 0.06 mg/L SWNT)",no effect on the cells
porfimer sodium [porfirmer sodium],side effect,[5],prolonged skin photosensitivity
same,median survival,[6],21 months
